This assay addresses T1, xanthine oxidase (XO) (Bos taurus, UniProt P80457).
T1 construct: gene XDH
Put plainly: spectrophotometric xanthine oxidase assay, uric acid formation at […] nm (XO from Roche). Format: biochemical.

T1 sequence (P80457 2-1332): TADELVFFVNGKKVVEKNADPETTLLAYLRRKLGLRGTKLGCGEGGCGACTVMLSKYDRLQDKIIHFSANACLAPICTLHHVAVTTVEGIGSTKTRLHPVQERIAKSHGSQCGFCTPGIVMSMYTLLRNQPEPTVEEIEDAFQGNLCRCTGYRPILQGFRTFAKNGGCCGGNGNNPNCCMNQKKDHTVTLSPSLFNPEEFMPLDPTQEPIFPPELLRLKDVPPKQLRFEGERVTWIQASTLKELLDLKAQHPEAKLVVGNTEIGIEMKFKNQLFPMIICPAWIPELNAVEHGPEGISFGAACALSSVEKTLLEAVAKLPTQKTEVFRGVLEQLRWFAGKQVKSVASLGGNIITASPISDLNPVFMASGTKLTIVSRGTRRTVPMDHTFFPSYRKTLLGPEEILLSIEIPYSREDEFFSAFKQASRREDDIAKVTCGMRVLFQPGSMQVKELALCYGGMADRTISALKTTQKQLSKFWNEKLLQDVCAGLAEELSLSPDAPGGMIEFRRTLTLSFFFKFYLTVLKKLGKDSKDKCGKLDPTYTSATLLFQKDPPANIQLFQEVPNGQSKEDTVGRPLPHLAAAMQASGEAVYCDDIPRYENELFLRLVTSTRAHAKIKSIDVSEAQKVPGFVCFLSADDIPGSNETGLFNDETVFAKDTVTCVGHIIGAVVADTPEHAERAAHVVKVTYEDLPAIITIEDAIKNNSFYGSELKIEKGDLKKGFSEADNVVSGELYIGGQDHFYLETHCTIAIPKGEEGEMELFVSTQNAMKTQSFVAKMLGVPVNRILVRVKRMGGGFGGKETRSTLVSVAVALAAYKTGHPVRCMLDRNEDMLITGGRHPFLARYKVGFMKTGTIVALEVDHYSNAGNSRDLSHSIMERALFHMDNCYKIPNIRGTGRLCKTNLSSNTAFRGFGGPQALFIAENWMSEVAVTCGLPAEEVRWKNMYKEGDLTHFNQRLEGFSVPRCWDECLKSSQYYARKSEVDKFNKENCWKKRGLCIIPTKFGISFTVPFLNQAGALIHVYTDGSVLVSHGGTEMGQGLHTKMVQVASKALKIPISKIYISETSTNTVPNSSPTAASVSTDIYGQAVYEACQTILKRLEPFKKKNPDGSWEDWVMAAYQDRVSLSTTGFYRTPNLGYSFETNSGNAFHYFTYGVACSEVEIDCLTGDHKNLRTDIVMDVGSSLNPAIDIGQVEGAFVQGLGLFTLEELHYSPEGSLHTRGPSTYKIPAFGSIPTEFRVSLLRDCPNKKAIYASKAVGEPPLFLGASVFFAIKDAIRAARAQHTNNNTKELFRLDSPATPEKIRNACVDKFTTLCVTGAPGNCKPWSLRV

The molecule `CC(C)C1=CC2=CC[C@@H]3[C@](C)(CCC[C@@]3(C)C(=O)O)[C@H]2CC1` [AA, abietic acid] showed an IC50 of 10.6 µM.

As a reminder, the IC50 is the concentration at which inhibition is half-maximal. A higher IC50 goes with a need for much substance.

Values taken from publication PMC10343225, “Investigating the Vital Role of the Identified Abietic Acid from Helianthus annuus L. Calathide Extract against Hyperuricemia via Human Embryonic Kidney 293T Cell Model” (Molecules, 2023).
